A short description of data set [1]: in vitro. The settings on record: human.
Data set [2] deals with HEK-293 human embryonic kidney cells. Description: in vitro.
For data set [3], the system named is HK-2 human kidney proximal tubule cells. As to the kind of experiment: in vitro.
Data set [4] can be described thus: In vivo toxicity and safety pharmacology, i.v./i.p./s.c.
Data set [5] deals with human primary hepatocytes. Description: Cell viability, human primary hepatocytes (Eurofins Panlabs). It counts as cell-based. As to the method: Cell viability of human primary hepatocytes against AA139 was assessed by fluorometric readout of Alamar Blue following 24 h incubation at 37 °C of human plateable cryopreserved hepatocytes and AA139 as an 8-point dose response, 0.1–300 μM, as described by Nociari et al.[41]. Cell viability was calculated as a percentage of the control cells and plotted versus concentration using Prism 8 Software. The IC50 value was determined by non-linear regression analysis of the concentration–response curve using the Hill equation. Assay was performed by Eurofins Pharma Discovery Services (Panlabs), St Charles, MO, USA, study number 100049990. Source data are provided as a source data file.

Converted amounts (≈) assume the structure as drawn. Residues, ends and D or L forms follow the SMILES beside them.

Turning to `CC(C)[C@@H]1NC(=O)[C@H](Cc2ccc(O)cc2)NC(=O)[C@H](Cc2c[nH]c3ccccc23)NC(=O)[C@@H](NC(=O)[C@H](Cc2ccccc2)NC(=O)CN)CSSC[C@@H](C(=O)N[C@@H](CC(N)=O)C(=O)O)NC(=O)[C@H](CCCNC(=N)N)NC(=O)[C@H](CCCNC(=N)N)NC(=O)[C@H](Cc2ccc(O)cc2)NC(=O)[C@@H]2CSSC[C@H](NC1=O)C(=O)N[C@@H](C)C(=O)N[C@@H](CCCNC(=N)N)C(=O)N[C@@H](CCCNC(=N)N)C(=O)N[C@@H](CC(N)=O)C(=O)NCC(=O)N[C@@H](C)C(=O)N[C@@H](CCCNC(=N)N)C(=O)N[C@@H](C(C)C)C(=O)N2` [AA139] (HELM PEPTIDE1{G.F.C.W.Y.V.C.A.R.R.N.G.A.R.V.C.Y.R.R.C.N}$PEPTIDE1,PEPTIDE1,3:R3-20:R3|PEPTIDE1,PEPTIDE1,7:R3-16:R3$$$V2.0), the cytotoxic concentration (CC50) at 24 h in data set [1] (HEK-293 cells) is > 300 µg/mL; in data set [1] (HK-2 cells), > 250 µg/mL; in data set [1] (HepG2 cells), > 300 µg/mL. In addition, in data set [2], the “CC50 HEK293, Mean” value is >300 µg/mL. In data set [3], the “CC50 HK2” value is >255 µg/mL. In addition, the “CC50 HK2, Mean” value in data set [3] is >250 µg/mL. This compound registered an NOAEL in mice in data set [4] (7-day or 14-day repeated 2 h i.v. infusion once or twice daily) of 20 mg kg^−1 per day. Further, the MTD was determined as 20 mg/kg in data set [4] (mouse, in vivo, ip); 15 mg/kg in data set [4] (mouse, in vivo, iv); 100 mg/kg in data set [4] (mouse, in vivo, sc, 100 mg/kg). The MTD at 168 h in data set [4] (mouse, in vivo, iv) was 25 mg/kg. In data set [4] (mouse, in vivo, iv, 20 mg/kg), this compound gave an AUC(0-t) of 28000 ng·h/mL. Also, the Cmax in data set [4] (mouse, in vivo, iv, 20 mg/kg, Cmax, Mouse, 14-day iv toxicity, GLP, TK dose 20 mg/kg, Day 1) worked out at 11600 ng/mL; in data set [4] (mouse, in vivo, iv, 20 mg/kg, Cmax, Mouse, 14-day iv toxicity, GLP, TK dose 20 mg/kg, Day 14) it was 9600 ng/mL; in data set [4] (mouse, in vivo, iv, 29 mg/kg), 7500 ng/mL. The same compound gave an AUC(0-inf) in data set [4] (mouse, in vivo, iv, 29 mg/kg) of 43800 ng·h/mL. The compound also displayed an NOAEL at 168 h in data set [4] (mouse, in vivo, iv, NOAEL, 7-day iv MTD, IV 2-h infusion, doses 20, 25, 30) of 20 mg/kg. In data set [4] (mouse, in vivo, iv, NOAEL, 14-day iv toxicity, GLP, IV 2-h infusion, 0, 10, 15, 20 BID), this compound gave an NOAEL at 336 h of 40 mg/kg/day. For the same compound, the NOAEL in data set [4] (mouse, in vivo, iv, NOAEL, CNS & respiratory safety pharmacology iv, IV 2-h infusion, doses 0, 15, 20, 25) was found to be 20 mg/kg; in data set [4] (mouse, in vivo, iv, NOAEL, single-dose iv MTD, doses 0, 5, 7.5, 10, 15, 20) it was 5 mg/kg. The “IC50, human primary hepatocytes” value in data set [5] (24 h) is 330 µg/mL (≈ 129 µM). Further, in data set [5] (IC50 / MIC), the “Fold higher hepatocyte IC50 over antibacterial activity against E. coli” value was 2400 fold. In data set [5] (IC50 / MIC), the “Fold higher hepatocyte IC50 over antibacterial activity against K. pneumoniae” value amounted to 300 fold.

As usually defined, the CC50 is the concentration at which the toxic effect on the cells reaches its halfway point. By AUC(0-t) is commonly meant exposure summed from dosing to a finite time, without extrapolation to infinity. Read a low AUC(0-t) as low exposure. The Cmax is the highest concentration seen after dosing. What is called AUC(0-inf) is the area under the concentration-time curve extrapolated to infinity. In general, NOAEL refers to the highest dose or exposure tested at which no adverse effect was seen.

Values taken from publication PMC7311426, “An amphipathic peptide with antibiotic activity against multidrug-resistant Gram-negative bacteria” (Nature Communications, 2020).
